Reference: article PMC11252457 (Acta Pharmaceutica Sinica. B, 2024)

Assays:
[1] = tested on: HIV-1 mutant strain L100I; test: microbe, parasite or virus in culture; assay type: cell-based; conditions: Human immunodeficiency virus 1, MT4, read-out: EC50 L100I
[2] = Cytotoxicity in mock-infected MT-4 cells; conditions: human
WT HIV-1 (IIIB) = test: microbe, parasite or virus in culture; assay type: cell-based; conditions: for EC50: Human immunodeficiency virus 1, IIIB, MT4, read-out: EC50 IIIB; for SI IIIB: ratio of CC50/EC50, IIIB
[3] = tested on: HIV-1 double mutant strain F227L/V106A; test: microbe, parasite or virus in culture; assay type: cell-based; conditions: Human immunodeficiency virus 1, MT4, read-out: EC50 F227L/V106A
[4] = tested on: HIV-1 mutant strain E138K; test: microbe, parasite or virus in culture; assay type: cell-based; conditions: Human immunodeficiency virus 1, MT4, read-out: EC50 E138K
[5] = tested on: HIV-1 mutant strain K103N; test: microbe, parasite or virus in culture; assay type: cell-based; conditions: Human immunodeficiency virus 1, MT4, read-out: EC50 K103N
[6] = tested on: HIV-1 mutant strain Y181C; test: microbe, parasite or virus in culture; assay type: cell-based; conditions: Human immunodeficiency virus 1, MT4, read-out: EC50 Y181C
[7] = tested on: HIV-1 RES056 (K103N/Y181C); test: microbe, parasite or virus in culture; assay type: cell-based; conditions: for EC50: Human immunodeficiency virus 1, MT4, read-out: EC50 RES056; for SI RES056: ratio of CC50/EC50, RES056
[8] = tested on: HIV-1 mutant strain Y188L; test: microbe, parasite or virus in culture; assay type: cell-based; conditions: Human immunodeficiency virus 1, MT4, read-out: EC50 Y188L
recombinant WT HIV-1 RT = recombinant WT HIV-1 RT (Human immunodeficiency virus type 1 group M subtype B, UniProt P03366); test: HIV-1 RT inhibition assay; assay type: biochemical

Structure (SMILES)	EC50 [1]	CC50 at 5 days [2]	EC50 (WT HIV-1 (IIIB))	SI IIIB (WT HIV-1 (IIIB))	EC50 [3]	EC50 [4]	EC50 [5]	EC50 [6]	EC50 [7]	SI RES056 [7]	EC50 [8]	IC50 (recombinant WT HIV-1 RT)
Cc1cc(C#N)cc(C)c1Oc1nc(NC2CCN(Cc3ccc(P(=O)(OCC(C)C)OCC(C)C)cc3)CC2)nc2ccsc12 [9h, Diisobutyl (4-((4-((4-(4-cyano-2,6-dimethylphenoxy)thieno[3,2-d]pyrimidin-2-yl)amino)piperidin-1-yl)methyl)phenyl)phosphonate]	0.135 ± 0.0284 µM	8.78 ± 9.12 µM	0.0909 ± 0.0508 µM	97	0.104 ± 0.0531 µM	0.124 ± 0.0314 µM	0.0533 ± 0.019 µM	0.182 ± 0.0405 µM	13.2 µM	1	0.174 ± 0.0949 µM	–
CCCCOP(=O)(OCCCC)c1ccc(CN2CCC(Nc3nc(Oc4c(C)cc(/C=C/C#N)cc4C)c4sccc4n3)CC2)cc1 [15d, Dibutyl (E)-(4-((4-((4-(4-(2-cyanovinyl)-2,6-dimethylphenoxy)thieno[3,2-d]pyrimidin-2-yl)amino)piperidin-1-yl)methyl)phenyl)phosphonate]	0.265 ± 0.0844 µM	12.2 ± 3.91 µM	0.173 ± 0.054 µM	71	0.495 ± 0.168 µM	0.678 ± 0.196 µM	0.188 ± 0.017 µM	0.779 ± 0.316 µM	1.43 ± 0.173 µM	9	0.714 ± 0.157 µM	–
Cc1cc(C#N)cc(C)c1Oc1nc(NC2CCN(Cc3ccc(P(C)(C)=O)cc3)CC2)nc2ccsc12 [9a, 4-((2-((1-(4-(Dimethylphosphoryl)benzyl)piperidin-4-yl)amino)thieno[3,2-d]pyrimidin-4-yl)oxy)-3,5-dimethylbenzonitrile]	0.00701 ± 0.00176 µM	215 ± 1.17 µM	0.0022 ± 0.00033 µM	97,727	0.0215 ± 0.0135 µM	0.00733 ± 0.00136 µM	0.00266 ± 0.00085 µM	0.0128 ± 0.00262 µM	0.257 ± 0.0952 µM	837	0.0113 ± 0.00087 µM	0.31 ± 0.01 µM
CCOP(=O)(OCC)c1ccc(CN2CCC(Nc3nc(Oc4c(C)cc(/C=C/C#N)cc4C)c4sccc4n3)CC2)cc1 [15c, Diethyl (E)-(4-((4-((4-(4-(2-cyanovinyl)-2,6-dimethylphenoxy)thieno[3,2-d]pyrimidin-2-yl)amino)piperidin-1-yl)methyl)phenyl)phosphonate]	0.0201 ± 0.0108 µM	8.15 ± 0.64 µM	0.0264 ± 0.0151 µM	309	0.0271 ± 0.0107 µM	0.0566 ± 0.0191 µM	0.0155 ± 0.00121 µM	0.0441 ± 0.0256 µM	0.11 ± 0.0272 µM	74	0.0624 ± 0.0227 µM	–
Cc1cc(/C=C/C#N)cc(C)c1Oc1nc(NC2CCN(Cc3ccc(P(=O)(OC(C)(C)C)OC(C)(C)C)cc3)CC2)nc2ccsc12 [15g, Di-tert-butyl (E)-(4-((4-((4-(4-(2-cyanovinyl)-2,6-dimethylphenoxy)thieno[3,2-d]pyrimidin-2-yl)amino)piperidin-1-yl)methyl)phenyl)phosphonate]	0.0258 ± 0.0158 µM	7.4 ± 2.25 µM	0.0206 ± 0.00831 µM	359	0.0437 ± 0.00752 µM	0.0597 ± 0.0131 µM	0.0169 ± 0.00768 µM	0.0464 ± 0.00756 µM	0.197 ± 0.0305 µM	38	0.0553 ± 0.0222 µM	–
Cc1cc(/C=C/C#N)cc(C)c1Oc1nc(NC2CCN(Cc3ccc(P(=O)(O)O)cc3)CC2)nc2ccsc12 [compound 16, (E)-(4-((4-((4-(4-(2-Cyanovinyl)-2,6-dimethylphenoxy)thieno[3,2-d]pyrimidin-2-yl)amino)piperidin-1-yl)methyl)phenyl)phosphonic acid]	13.6 µM	> 217 µM	3.81 ± 1.52 µM	>57	43.5 µM	19.1 µM	6.27 ± 1.9 µM	30.4 µM	170 µM	>1	133 µM	–
Cc1cc(C#N)cc(C)c1Oc1nc(NC2CCN(Cc3ccc(P(=O)(OC(C)C)OC(C)C)cc3)CC2)nc2ccsc12 [9f, Diisopropyl (4-((4-((4-(4-cyano-2,6-dimethylphenoxy)thieno[3,2-d]pyrimidin-2-yl)amino)piperidin-1-yl)methyl)phenyl)phosphonate]	0.0295 ± 0.0142 µM	111 ± 33.6 µM	0.0248 ± 0.0148 µM	4476	0.0284 ± 0.0134 µM	0.0413 ± 0.0153 µM	0.0226 ± 0.00783 µM	0.0735 ± 0.0694 µM	0.514 ± 0.0571 µM	216	0.042 ± 0.0117 µM	–
Cc1cc(C#N)cc(C)c1Oc1nc(NC2CCN(Cc3ccc(P(=O)(OC(C)(C)C)OC(C)(C)C)cc3)CC2)nc2ccsc12 [9g, Di-tert-butyl (4-((4-((4-(4-cyano-2,6-dimethylphenoxy)thieno[3,2-d]pyrimidin-2-yl)amino)piperidin-1-yl)methyl)phenyl)phosphonate]	0.31 ± 0.0578 µM	16.3 ± 4.28 µM	0.0993 ± 0.037 µM	164	0.637 ± 0.492 µM	0.179 ± 0.0198 µM	0.124 ± 0.0262 µM	0.719 ± 0.263 µM	> 16.3 µM	<1	0.445 ± 0.157 µM	–
Cc1cc(C#N)cc(C)c1Oc1nc(NC2CCN(Cc3ccc(P(=O)(OCC(F)(F)F)OCC(F)(F)F)cc3)CC2)nc2ccsc12 [9e, Bis(2,2,2-trifluoroethyl) (4-((4-((4-(4-cyano-2,6-dimethylphenoxy)thieno[3,2-d]pyrimidin-2-yl)amino)piperidin-1-yl)methyl)phenyl)phosphonate]	0.165 ± 0.111 µM	17.4 ± 2.85 µM	0.033 ± 0.00763 µM	527	0.0651 ± 0.0195 µM	0.137 ± 0.083 µM	0.0458 ± 0.00461 µM	0.248 ± 0.0604 µM	1.29 ± 0.12 µM	13	0.142 ± 0.0633 µM	–
Cc1cc(/C=C/C#N)cc(C)c1Oc1nc(NC2CCN(Cc3ccc(P(=O)(OC(C)C)OC(C)C)cc3)CC2)nc2ccsc12 [15f, Diisopropyl (E)-(4-((4-((4-(4-(2-cyanovinyl)-2,6-dimethylphenoxy)thieno[3,2-d]pyrimidin-2-yl)amino)piperidin-1-yl)methyl)phenyl)phosphonate]	0.0561 ± 0.0132 µM	4.45 ± 0.57 µM	0.0292 ± 0.00912 µM	152	0.0793 ± 0.013 µM	0.162 ± 0.0358 µM	0.041 ± 0.00763 µM	0.156 ± 0.059 µM	0.401 ± 0.321 µM	11	0.195 ± 0.0323 µM	–
CCCCOP(=O)(OCCCC)c1ccc(CN2CCC(Nc3nc(Oc4c(C)cc(C#N)cc4C)c4sccc4n3)CC2)cc1 [9d, Dibutyl (4-((4-((4-(4-cyano-2,6-dimethylphenoxy)thieno[3,2-d]pyrimidin-2-yl)amino)piperidin-1-yl)methyl)phenyl)phosphonate]	0.23 ± 0.054 µM	7.8 ± 1.53 µM	0.125 ± 0.039 µM	62	0.248 ± 0.0373 µM	0.241 ± 0.0349 µM	0.196 ± 0.0136 µM	0.311 ± 0.0504 µM	6.5 ± 0.483 µM	1	0.24 ± 0.0583 µM	–
Cc1cc(C#N)cc(C)c1Oc1nc(NC2CCN(Cc3ccc(P(=O)(O)O)cc3)CC2)nc2ccsc12 [compound 10, (4-((4-((4-(4-Cyano-2,6-dimethylphenoxy)thieno[3,2-d]pyrimidin-2-yl)amino)piperidin-1-yl)methyl)phenyl)phosphonic acid]	> 227 µM	> 227 µM	16.5 µM	>14	> 227 µM	160 µM	147 µM	> 227 µM	> 227 µM	<1	> 227 µM	–
Cc1cc(/C=C/C#N)cc(C)c1Oc1nc(NC2CCN(Cc3ccc(P(=O)(OCC(F)(F)F)OCC(F)(F)F)cc3)CC2)nc2ccsc12 [15e, Bis(2,2,2-trifluoroethyl) (E)-(4-((4-((4-(4-(2-cyanovinyl)-2,6-dimethylphenoxy)thieno[3,2-d]pyrimidin-2-yl)amino)piperidin-1-yl)methyl)phenyl)phosphonate]	0.14 ± 0.0505 µM	15.6 ± 2.67 µM	0.138 ± 0.0558 µM	113	0.338 ± 0.0371 µM	0.423 ± 0.149 µM	0.139 ± 0.0657 µM	0.584 ± 0.272 µM	0.747 ± 0.242 µM	21	0.497 ± 0.0492 µM	–
Cc1cc(/C=C/C#N)cc(C)c1Oc1nc(NC2CCN(Cc3ccc(P(=O)(OCC(C)C)OCC(C)C)cc3)CC2)nc2ccsc12 [15h, Diisobutyl (E)-(4-((4-((4-(4-(2-cyanovinyl)-2,6-dimethylphenoxy)thieno[3,2-d]pyrimidin-2-yl)amino)piperidin-1-yl)methyl)phenyl)phosphonate]	0.712 ± 0.158 µM	16.5 ± 2.05 µM	0.151 ± 0.0484 µM	109	0.886 ± 0.167 µM	0.758 ± 0.249 µM	0.239 ± 0.027 µM	1.12 ± 0.106 µM	2.2 ± 0.36 µM	8	0.86 ± 0.218 µM	–
COP(=O)(OC)c1ccc(CN2CCC(Nc3nc(Oc4c(C)cc(/C=C/C#N)cc4C)c4sccc4n3)CC2)cc1 [15b, Dimethyl (E)-(4-((4-((4-(4-(2-cyanovinyl)-2,6-dimethylphenoxy)thieno[3,2-d]pyrimidin-2-yl)amino)piperidin-1-yl)methyl)phenyl)phosphonate]	0.0857 ± 0.028 µM	34.9 ± 2.86 µM	0.0191 ± 0.0139 µM	1827	0.129 ± 0.0833 µM	0.0645 ± 0.0317 µM	0.013 ± 0.0038 µM	0.193 ± 0.0748 µM	0.603 ± 0.139 µM	58	0.478 ± 0.158 µM	–
